Tested on: Mus musculus
Test: Analgesic activity in sc dosed albino dd mouse by tail pressure stimuli method
Assay type: functional

Row | SMILES | ED50
1 | Br.C[C@@H]1[C@H]2Cc3ccc(O)cc3[C@]1(C)CN(C)C2 | 32.8 mg/kg
2 | Br.CN1C[C@@H]2Cc3ccc(O)cc3[C@@](C)(C2)C1 | 8.4 mg/kg
3 | COc1ccc2c3c1O[C@H]1[C@@H](O)C=C[C@H]4[C@@H](C2)N(C)CC[C@@]341.COc1ccc2c3c1O[C@H]1[C@@H](O)C=C[C@H]4[C@@H](C2)N(C)CC[C@@]341.O.O=P(O)(O)O.O=P(O)(O)O [CODEINE PHOSPHATE] | 9.2 mg/kg
4 | Br.C[C@H]1[C@H]2Cc3ccc(O)cc3[C@]1(C)CN(C)C2 | 28 mg/kg
5 | CN1C[C@@H]2Cc3ccccc3[C@@](C)(C2)C1.Cl | > 50 mg/kg
